According to patent US10106558B2, “Azolobenzazine compounds, compositions comprising these compounds and their use for controlling invertebrate pests” (BASF SE, priority 2015, dated 2018):

Columns and labels:
Format in all cases: in vivo
[1] = tested on: Silverleaf Whitefly (Bemisia argentifolii) (Adults); assay: Action on silverleaf whitefly adults, sprayed cotton plants; settings: 72 h, 3 days after treatment, read-out: mortality in comparison with untreated controls
Description: Example B4: Action on Silverleaf Whitefly (Bemisia argentifolii) (Adults)
The active compounds were formulated by a Tecan liquid handler in 100% cyclohexanone as a 10,000 ppm solution supplied in tubes. The 10,000 ppm solution was serially diluted in 100% cyclohexanone to make interim solutions. These served as stock solutions for which final dilutions were made by the Tecan in 50% acetone:50% water (v/v) into 5 or 10 ml glass vials. A nonionic surfactant (Kinetic®) was included in the solution at a volume of 0.01% (v/v). The vials were then inserted into an automated electrostatic sprayer equipped with an atomizing nozzle for application to plants/insects.
Cotton plants at the cotyledon stage (one plant per pot) were sprayed by an automated electrostatic plant sprayer equipped with an atomizing spray nozzle. The plants were dried in the sprayer fume hood and then removed from the sprayer. Each pot was placed into a plastic cup and about 10 to 12 whitefly adults (approximately 3-5 days old) were introduced. The insects were collected using an aspirator and a nontoxic Tygon® tubing connected to a barrier pipette tip. The tip, containing the collected insects, was then gently inserted into the soil containing the treated plant, allowing insects to crawl out of the tip to reach the foliage for feeding. Cups were covered with a reusable screened lid. Test plants were maintained in a growth room at about 25° C. and about 20-40% relative humidity for 3 days, avoiding direct exposure to fluorescent light (24 hour photoperiod) to prevent trapping of heat inside the cup. Mortality was assessed 3 days after treatment, compared to untreated control plants.

[2] = tested on: Mediterranean fruitfly (Ceratitis capitata); assay: Action on Mediterranean fruitfly, eggs on insect diet in microtiter plates; settings: 120 h, egg and larval mortality visually assessed after 5 days, read-out: mortality in comparison with untreated controls
Method in brief: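 Microtiter plates held insect diet plus 50-80 C. capitata eggs; compounds in 75% water/25% DMSO were sprayed onto the diet at several concentrations, two replicates. Plates were kept at about […] and […] relative humidity for 5 days, then egg and larval mortality was scored visually.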

[3] = tested on: yellow fever mosquito (Aedes aegypti); assay: whole plant or invertebrate; settings: 48 h, larval mortality visually assessed after 2 days, read-out: mortality in comparison with untreated controls
Method in brief: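 Freshly hatched larvae (5-15 per well) held in 200 μl tap water; compounds formulated in 25% DMSO/water and 2.5 μl sprayed at several concentrations, two replicates. Plates kept 2 days at 28 °C, 80% RH, then larval mortality scored visually.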

[4] = tested on: Orchid Thrips (Dichromothrips corbetti); assay: Action on orchid thrips, floral-immersion technique; settings: adult thrips, 72 hours after treatment, read-out: mortality in comparison with untreated controls
Method in brief: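 Lab-colony adult thrips, about 20 per arena, were exposed to whole orchid flower petals dipped in compound diluted in 1:1 acetone:water with 0.01% v/v Kinetic HV and then dried. Arenas were held under continuous light at about 28 °C. Live thrips were counted after 3 days and percent mortality recorded at 72 h post-treatment.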

[5] = tested on: vetch aphid (Megoura viciae); assay: Action on vetch aphid, broad bean leaf disks in 24-well microtiter plates; settings: foliar, 120 h, adult aphids on treated leaf disks, 5 days, read-out: mortality in comparison with untreated controls
Description: Example B7: Action on Vetch Aphid (Megoura viciae)
For evaluating control of vetch aphid (Megoura viciae) through contact or systemic means the test unit consisted of 24-well-microtiter plates containing broad bean leaf disks.
The compounds were formulated using a solution containing 75% v/v water and 25% v/v DMSO. Different concentrations of formulated compounds were sprayed onto the leaf disks at 2.5 μl, using a custom built micro atomizer, at two replications.
After application, the leaf disks were air-dried and 5-8 adult aphids placed on the leaf disks inside the microtiter plate wells. The aphids were then allowed to suck on the treated leaf disks and incubated at about 23±1° C. and about 50±5% relative humidity for 5 days. Aphid mortality and fecundity was then visually assessed.

[6] = tested on: boll weevil (Anthonomus grandis); assay: Action on boll weevil, eggs on insect diet in 96-well microtiter plates; settings: 120 h, 800 ppm, egg and larval mortality visually assessed after 5 days, read-out: mortality in comparison with untreated controls
Method in brief: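 Diet in 96-well plates was infested with 5-10 A. grandis eggs and sprayed with compounds formulated in 75% water/25% DMSO, at several concentrations, in two replicates. Plates were held 5 days at about 25±1 °C and 75±5% RH. Egg and larval mortality was then scored visually.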

[7] = tested on: Diamond Back Moth (Plutella xylostella); assay: Action on diamond back moth, dipped cabbage leaves; settings: 3rd instar larvae, 72 hours after treatment, read-out: mortality in comparison with untreated controls
Method in brief: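 Cabbage leaves dipped in compound in 1:1 water:acetone with 0.01% (vol/vol) surfactant, air-dried, placed on moist filter paper and infested with ten 3rd-instar larvae. Mortality scored 72 hours after treatment; feeding damage rated on a 0-100% scale.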

[8] = tested on: Southern Armyworm (Spodoptera eridania), 2nd instar larvae; assay: Action on southern armyworm 2nd instar larvae, sprayed lima bean plants; settings: 96 h, 4 days after treatment, read-out: mortality in comparison with untreated controls
Method in brief: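 Lima bean plants (Sieva, 1st true leaf) sprayed electrostatically with compound in 50% acetone/water plus 0.01% nonionic surfactant, dried, then infested with 10–11 larvae in bags. Held at about 25 °C, 20–40% RH; mortality and reduced feeding scored 4 days after treatment versus untreated plants.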

[9] = tested on: tobacco budworm (Heliothis virescens); assay: Action on tobacco budworm, eggs on insect diet in 96-well microtiter plates; settings: 120 h, egg and larval mortality visually assessed after 5 days, read-out: mortality in comparison with untreated controls
Method in brief: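 Compounds in 25% DMSO/water sprayed (10 μl) onto insect diet holding 15–25 H. virescens eggs, two replicates at several concentrations. Held 5 days at about 28±1 °C, 80±5% RH. Egg and larval mortality scored visually.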

CC(C)c1ccccc1N1CCS/C1=N/N=C/c1ccc2c(ccc3c2ncn3-c2ccc(OC(F)(F)F)cc2)n1 [Compound C-21, (E)-3-(2-isopropylphenyl)-N-[(E)-[3-[4-(trifluoromethoxy)phenyl]imidazo[4,5-f]quinolin-7-yl]methyleneamino]thiazolidin-2-imine]
≥ 75%: mortality at 500 ppm [1] | mortality at 800 ppm [2] | mortality at 800 ppm [3] | mortality at 500 ppm [4] | mortality at 800 ppm [5] | mortality at 800 ppm [6] | mortality at 500 ppm [7] | mortality at 500 ppm [8] | mortality at 800 ppm [9]
